Data: ChEMBL document CHEMBL1201862, “PubChem BioAssay data set” (2004)
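Method: 48-hour compound exposure of cells in 96-well plates, five concentrations, linear interpolation of endpoints. GI50: concentration for 50% inhibition of growth.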 Active and inactive are the calls of the source. Rule as the data show it: active = GI50 up to about 1.1 µM and inactive = higher.

Experiments:
Assay in all cases: DTP human tumour cell line panel, 48 h
EKVX = system: EKVX
COLO 205 = system: COLO 205
RXF 393 = system: RXF 393
NCI-H522 = system: NCI-H522
KM12 = system: KM12
Malme-3M = system: Malme-3M
OVCAR-3 = system: OVCAR-3
MOLT-4 = system: MOLT-4
ACHN = system: ACHN
HCT-116 = system: HCT-116
T47D = system: T47D
MDA-MB-231 = system: MDA-MB-231
SK-MEL-2 = system: SK-MEL-2
SK-MEL-5 = system: SK-MEL-5
SN12C = system: SN12C
MDA-N = system: MDA-N
SK-OV-3 = system: SK-OV-3
HOP-92 = system: HOP-92
SW-620 = system: SW-620
SNB-19 = system: SNB-19

Row | SMILES | GI50 (EKVX) | GI50 (COLO 205) | GI50 (RXF 393) | GI50 (NCI-H522) | GI50 (KM12) | GI50 (Malme-3M) | GI50 (OVCAR-3) | GI50 (MOLT-4) | GI50 (ACHN) | GI50 (HCT-116) | GI50 (T47D) | GI50 (MDA-MB-231) | GI50 (SK-MEL-2) | GI50 (SK-MEL-5) | GI50 (SN12C) | GI50 (MDA-N) | GI50 (SK-OV-3) | GI50 (HOP-92) | GI50 (SW-620) | GI50 (SNB-19)
1 | C=C(C)C(O)C(O)c1c(OC)ccc2ccc(=O)oc12 (stereo not given) | > 100 µM (inactive) | > 100 µM (inactive) | > 100 µM (inactive) | > 100 µM (inactive) | > 100 µM (inactive) | > 100 µM (inactive) | > 100 µM (inactive) | > 100 µM (inactive) | > 100 µM (inactive) | > 100 µM (inactive) | > 100 µM (inactive) | > 100 µM (inactive) | > 100 µM (inactive) | > 100 µM (inactive) | > 100 µM (inactive) | > 100 µM (inactive) | > 100 µM (inactive) | > 100 µM (inactive) | > 100 µM (inactive) | > 100 µM (inactive)
2 | O=C1c2ccccc2C(=O)c2c(OCC3CO3)ccc(OCC3CO3)c21 (stereo not given) | 12.5 µM (inactive) | 4.44 µM (inactive) | 3.96 µM (inactive) | 3.26 µM (inactive) | 5.04 µM (inactive) | 7.74 µM (inactive) | 3.4 µM (inactive) | 0.0653 µM (active) | 0.964 µM (active) | 1.99 µM (inactive) | 6 µM (inactive) | 12.5 µM (inactive) | 14 µM (inactive) | 5.69 µM (inactive) | 1.07 µM (active) | 3.8 µM (inactive) | 12.4 µM (inactive) | 2.67 µM (inactive) | 1.1 µM (active) | 7.67 µM (inactive)
3 | C=CCNS(=O)(=O)c1ncnc2[nH]cnc12 | > 100 µM (inactive) | > 100 µM (inactive) | 59.7 µM (inactive) | > 100 µM (inactive) | > 100 µM (inactive) | > 100 µM (inactive) | > 100 µM (inactive) | 14.2 µM (inactive) | > 100 µM (inactive) | > 100 µM (inactive) | > 100 µM (inactive) | > 100 µM (inactive) | > 100 µM (inactive) | > 100 µM (inactive) | 55.6 µM (inactive) | 82.8 µM (inactive) | > 100 µM (inactive) | 5.75 µM (inactive) | > 100 µM (inactive) | > 100 µM (inactive)
4 | Oc1ccc(-c2nn3c(CCCCCCCCc4nnc5sc(-c6ccc(O)cc6)nn45)nnc3s2)cc1 | > 100 µM (inactive) | > 100 µM (inactive) | > 100 µM (inactive) | > 100 µM (inactive) | > 100 µM (inactive) | > 100 µM (inactive) | > 100 µM (inactive) | 95.7 µM (inactive) | > 100 µM (inactive) | > 100 µM (inactive) | 55.1 µM (inactive) | > 100 µM (inactive) | > 100 µM (inactive) | > 100 µM (inactive) | > 100 µM (inactive) | > 100 µM (inactive) | > 100 µM (inactive) | > 100 µM (inactive) | > 100 µM (inactive) | > 100 µM (inactive)
5 | COc1cccc(C(NC2=NCCC=N2)c2cc3c(cc2O)OCO3)c1O (stereo not given) | > 100 µM (inactive) | 40.1 µM (inactive) | 23.8 µM (inactive) | 15.8 µM (inactive) | 32.8 µM (inactive) | 38.1 µM (inactive) | 22 µM (inactive) | 23.6 µM (inactive) | 48 µM (inactive) | 24.1 µM (inactive) | 25.5 µM (inactive) | 23.6 µM (inactive) | 24.4 µM (inactive) | 38.8 µM (inactive) | 19.6 µM (inactive) | 27.2 µM (inactive) | 94 µM (inactive) | 23.7 µM (inactive) | 20.4 µM (inactive) | 46.1 µM (inactive)
6 | CC(=O)N(CN1C(=O)CCC1C(=O)O)c1ccccc1 (stereo not given) | > 53.8 µM (inactive) | > 58.6 µM (inactive) | > 60.3 µM (inactive) | > 53 µM (inactive) | > 55.3 µM (inactive) | 29.8 µM (inactive) | > 54.5 µM (inactive) | > 54.2 µM (inactive) | > 56.6 µM (inactive) | > 56 µM (inactive) | > 57.3 µM (inactive) | > 48.8 µM (inactive) | > 54.7 µM (inactive) | > 58.7 µM (inactive) | > 57.7 µM (inactive) | > 58.9 µM (inactive) | > 56.1 µM (inactive) | > 63.1 µM (inactive) | > 100 µM (inactive) | > 55.1 µM (inactive)
7 | CC1(C)CCC[C@@]2(C)C1C(=O)[C@@H]1O[C@]1(C)[C@@H]2CO (stereo not given in full) | 31.6 µM (inactive) | 18.4 µM (inactive) | 25.6 µM (inactive) | 22.6 µM (inactive) | 29.4 µM (inactive) | 37.9 µM (inactive) | 18.4 µM (inactive) | 39 µM (inactive) | 40.3 µM (inactive) | 19.7 µM (inactive) | 26.7 µM (inactive) | 49 µM (inactive) | 28.1 µM (inactive) | 46.2 µM (inactive) | 25.5 µM (inactive) | 23.5 µM (inactive) | 39.6 µM (inactive) | 27.8 µM (inactive) | 24.7 µM (inactive) | 24.4 µM (inactive)
8 | O=C1N[C@@H](c2c[nH]c3ccc(Br)cc23)C(=O)N[C@H]1c1c[nH]c2ccc(Br)cc12 | 13 µM (inactive) | 7.21 µM (inactive) | 15.6 µM (inactive) | 6.61 µM (inactive) | 5.06 µM (inactive) | 14.4 µM (inactive) | 9.23 µM (inactive) | 3.53 µM (inactive) | 3.68 µM (inactive) | 7.93 µM (inactive) | 10.8 µM (inactive) | 8.87 µM (inactive) | 13.6 µM (inactive) | 5.38 µM (inactive) | 12.4 µM (inactive) | 8.17 µM (inactive) | 15.9 µM (inactive) | 3.71 µM (inactive) | 10.9 µM (inactive) | 15.2 µM (inactive)
9 | O=C/C=C/c1ccco1 | > 100 µM (inactive) | > 100 µM (inactive) | > 100 µM (inactive) | > 100 µM (inactive) | > 100 µM (inactive) | > 100 µM (inactive) | > 100 µM (inactive) | > 100 µM (inactive) | > 100 µM (inactive) | > 100 µM (inactive) | > 100 µM (inactive) | > 100 µM (inactive) | > 100 µM (inactive) | > 100 µM (inactive) | > 100 µM (inactive) | > 100 µM (inactive) | > 100 µM (inactive) | > 100 µM (inactive) | > 100 µM (inactive) | > 100 µM (inactive)
10 | Cc1nc(O)c(Cc2ccccc2O)c(-c2ccccc2)n1 | 19.1 µM (inactive) | > 100 µM (inactive) | > 100 µM (inactive) | > 100 µM (inactive) | > 100 µM (inactive) | > 100 µM (inactive) | > 100 µM (inactive) | > 100 µM (inactive) | > 100 µM (inactive) | > 100 µM (inactive) | 78.5 µM (inactive) | 98.9 µM (inactive) | > 100 µM (inactive) | > 100 µM (inactive) | > 100 µM (inactive) | > 100 µM (inactive) | > 100 µM (inactive) | > 100 µM (inactive) | > 100 µM (inactive) | > 100 µM (inactive)
11 | O=C(O)CC/C(=N\Nc1nsc2ccccc12)c1ccc(Cl)cc1 | 69.5 µM (inactive) | 43.4 µM (inactive) | 23.5 µM (inactive) | 34.5 µM (inactive) | 22.9 µM (inactive) | 45 µM (inactive) | 18.3 µM (inactive) | 21.9 µM (inactive) | 28.2 µM (inactive) | 17.9 µM (inactive) | 31.2 µM (inactive) | 35.6 µM (inactive) | 36.5 µM (inactive) | 22.2 µM (inactive) | 26 µM (inactive) | 31.3 µM (inactive) | 32.6 µM (inactive) | 24 µM (inactive) | 28.6 µM (inactive) | > 64 µM (inactive)
12 | CCCCCCCC/C=C\CCCCCCC/C=C1\C[C@](/C=C/C(=O)OC)(CO)OC1=O | 10.4 µM (inactive) | 2.02 µM (inactive) | 5.28 µM (inactive) | 2.58 µM (inactive) | 3.37 µM (inactive) | 1.4 µM (inactive) | 5.32 µM (inactive) | 0.611 µM (active) | 2.19 µM (inactive) | 2.16 µM (inactive) | 3.27 µM (inactive) | 1.94 µM (inactive) | 8.41 µM (inactive) | 3.31 µM (inactive) | 1.56 µM (inactive) | 0.834 µM (active) | 6.3 µM (inactive) | 2.94 µM (inactive) | 1.78 µM (inactive) | 4.54 µM (inactive)
13 | Nc1ccccc1C(=O)NNC(=O)c1ccccc1N | > 100 µM (inactive) | > 100 µM (inactive) | > 100 µM (inactive) | > 100 µM (inactive) | > 100 µM (inactive) | > 100 µM (inactive) | > 100 µM (inactive) | > 100 µM (inactive) | > 100 µM (inactive) | > 100 µM (inactive) | > 100 µM (inactive) | > 100 µM (inactive) | > 100 µM (inactive) | > 100 µM (inactive) | > 100 µM (inactive) | > 100 µM (inactive) | > 100 µM (inactive) | > 100 µM (inactive) | > 100 µM (inactive) | > 100 µM (inactive)
14 | CCOC(=O)c1c[nH]c2cc3c(cc2c1=O)CCS3 | > 100 µM (inactive) | > 100 µM (inactive) | 57.8 µM (inactive) | > 100 µM (inactive) | > 100 µM (inactive) | > 100 µM (inactive) | > 100 µM (inactive) | > 100 µM (inactive) | > 100 µM (inactive) | 37.9 µM (inactive) | > 100 µM (inactive) | > 100 µM (inactive) | > 100 µM (inactive) | > 100 µM (inactive) | > 100 µM (inactive) | > 100 µM (inactive) | > 100 µM (inactive) | > 100 µM (inactive) | > 100 µM (inactive) | > 100 µM (inactive)
